Data set [1] is described as follows: Tail flick assay. The conditions noted are these: in vivo. In general terms: Thermal pain tests record how soon the animal reacts.

Each structure is given as a SMILES string.

For orientation: melting point means the temperature of the solid-liquid transition.

`CCOC(=O)c1ncn2c1CN=C(c1ccccc1)c1cc(-c3ccccc3)ccc1-2` [DM-I-81, Ethyl 8-phenyl-6-phenyl-4H-benzo[f]imidazo[1,5-a][1,4]diazepine-3-carboxylate] showed a melting point of 200 to 201 °C. `CCc1ccc2c(c1)C(=O)N(C)Cc1c(C(=O)OCCCOC(=O)c3ncn4c3CN(C)C(=O)c3cc(CC)ccc3-4)ncn1-2` [XLi356, 1,3-Bis(8-ethyl-5,6-dihydro-5-methyl-6-oxo-4H-imidazo[1,5a][1,4]benzodiazepine-3-carboxy)propyl diester]: the “analgesic effect in tail flick assay (in words)” value in data set [1] is “No analgesic effect”.

Source of the values: patent US7595395B2, “Gabaergic agents to treat memory deficits” (priority 2005, dated 2009).
